Like-named read-outs stand apart in the source and are kept apart here.
What was measured:
Type in all cases: biochemical
[1] = target: T1, recombinant human FAPα (rhFAPα) (Homo sapiens, UniProt Q12884); assay: FAPα enzymatic exopeptidase (dipeptidase) activity assay; details: for inhibition at 1 µM: 1 μM test compound, Z-Gly-Pro-AMC substrate, read-out: rhFAPα (% exo inh @ 1 μM); for IC50: exopeptidase, read-out: rhFAPα (exo IC50)
T1 construct: purchased R&S system (so in the source)
T1 sequence (Q12884 1-760): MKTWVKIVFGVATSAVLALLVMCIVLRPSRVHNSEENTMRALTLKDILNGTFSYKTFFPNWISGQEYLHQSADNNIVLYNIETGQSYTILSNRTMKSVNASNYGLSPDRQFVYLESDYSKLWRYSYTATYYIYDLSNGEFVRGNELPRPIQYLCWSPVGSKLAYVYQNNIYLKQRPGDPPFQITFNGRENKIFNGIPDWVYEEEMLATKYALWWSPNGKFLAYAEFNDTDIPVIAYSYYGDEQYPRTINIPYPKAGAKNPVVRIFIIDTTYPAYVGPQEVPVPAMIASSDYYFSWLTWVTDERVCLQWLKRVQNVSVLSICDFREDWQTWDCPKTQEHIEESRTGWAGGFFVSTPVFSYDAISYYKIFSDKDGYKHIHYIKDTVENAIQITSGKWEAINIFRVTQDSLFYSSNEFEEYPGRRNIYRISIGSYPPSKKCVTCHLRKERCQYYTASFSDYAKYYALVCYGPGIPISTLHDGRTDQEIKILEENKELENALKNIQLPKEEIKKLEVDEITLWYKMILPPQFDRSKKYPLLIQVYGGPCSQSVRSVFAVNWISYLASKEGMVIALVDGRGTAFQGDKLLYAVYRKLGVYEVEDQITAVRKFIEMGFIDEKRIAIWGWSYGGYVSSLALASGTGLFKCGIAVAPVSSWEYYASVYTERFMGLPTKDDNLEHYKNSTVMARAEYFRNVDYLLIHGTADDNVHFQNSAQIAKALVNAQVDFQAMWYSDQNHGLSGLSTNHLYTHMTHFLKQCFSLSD

[2] = target: T2, recombinant human DPP9 (rhDPP9) (Homo sapiens, UniProt Q86TI2); assay: DPP9 enzymatic activity assay; details: H-Gly-Pro-AMC substrate
T2 construct: purchased R&S system (so in the source)
Method: (§1) 7-Amino-4-Methylcoumarin (AMC) release was detected by measuring fluorescence at Ex/Em 380/460 nm using a Multifunction Microplate Reader (Synergy 4, Biotek). All measurements were carried out in triplicate.

[3] = target: T3, recombinant human DPPIV (rhDPPIV) (Homo sapiens, UniProt P27487); assay: DPPIV enzymatic activity assay; details: H-Gly-Pro-pNA substrate
T3 construct: purchased R&S system (so in the source)

[4] = target: T4, recombinant human PREP (rhPREP) (Homo sapiens, UniProt P48147); assay: PREP enzymatic activity assay; details: Z-Gly-Pro-AMC substrate
T4 sequence (P48147 1-710): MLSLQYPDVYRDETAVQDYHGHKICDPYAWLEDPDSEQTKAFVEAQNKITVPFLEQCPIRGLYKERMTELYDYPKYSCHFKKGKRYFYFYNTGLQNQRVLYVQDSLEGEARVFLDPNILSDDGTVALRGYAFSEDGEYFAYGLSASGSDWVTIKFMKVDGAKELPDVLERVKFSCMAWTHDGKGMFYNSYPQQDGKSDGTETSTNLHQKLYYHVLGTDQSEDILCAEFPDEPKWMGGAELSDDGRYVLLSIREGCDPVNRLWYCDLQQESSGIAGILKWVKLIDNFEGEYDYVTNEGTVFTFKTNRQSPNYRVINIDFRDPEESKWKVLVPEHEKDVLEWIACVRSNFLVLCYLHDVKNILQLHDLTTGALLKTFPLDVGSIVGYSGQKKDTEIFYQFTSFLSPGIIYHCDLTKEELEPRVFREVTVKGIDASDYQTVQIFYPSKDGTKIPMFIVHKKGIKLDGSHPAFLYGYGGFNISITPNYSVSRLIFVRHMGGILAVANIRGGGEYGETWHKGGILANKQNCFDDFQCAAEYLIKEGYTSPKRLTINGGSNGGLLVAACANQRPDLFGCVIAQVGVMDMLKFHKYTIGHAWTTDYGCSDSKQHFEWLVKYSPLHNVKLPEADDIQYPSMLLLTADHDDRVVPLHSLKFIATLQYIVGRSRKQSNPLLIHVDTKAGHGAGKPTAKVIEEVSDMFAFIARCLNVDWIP
Method: as §1

mouse plasma FAPα = target: T5, mouse plasma FAPα (Mus musculus, UniProt P97321); assay: FAPα enzymatic activity in mouse plasma; details: C57BL/6 mouse plasma; PRXS-AMC substrate; read-out: mouse plasma FAPα (PRXS-AMC) (exo IC50)
T5 construct: from tissue; host or cells: mouse plasma (C57BL/6, EDTA)
T5 sequence (P97321 24-761 limits assumed): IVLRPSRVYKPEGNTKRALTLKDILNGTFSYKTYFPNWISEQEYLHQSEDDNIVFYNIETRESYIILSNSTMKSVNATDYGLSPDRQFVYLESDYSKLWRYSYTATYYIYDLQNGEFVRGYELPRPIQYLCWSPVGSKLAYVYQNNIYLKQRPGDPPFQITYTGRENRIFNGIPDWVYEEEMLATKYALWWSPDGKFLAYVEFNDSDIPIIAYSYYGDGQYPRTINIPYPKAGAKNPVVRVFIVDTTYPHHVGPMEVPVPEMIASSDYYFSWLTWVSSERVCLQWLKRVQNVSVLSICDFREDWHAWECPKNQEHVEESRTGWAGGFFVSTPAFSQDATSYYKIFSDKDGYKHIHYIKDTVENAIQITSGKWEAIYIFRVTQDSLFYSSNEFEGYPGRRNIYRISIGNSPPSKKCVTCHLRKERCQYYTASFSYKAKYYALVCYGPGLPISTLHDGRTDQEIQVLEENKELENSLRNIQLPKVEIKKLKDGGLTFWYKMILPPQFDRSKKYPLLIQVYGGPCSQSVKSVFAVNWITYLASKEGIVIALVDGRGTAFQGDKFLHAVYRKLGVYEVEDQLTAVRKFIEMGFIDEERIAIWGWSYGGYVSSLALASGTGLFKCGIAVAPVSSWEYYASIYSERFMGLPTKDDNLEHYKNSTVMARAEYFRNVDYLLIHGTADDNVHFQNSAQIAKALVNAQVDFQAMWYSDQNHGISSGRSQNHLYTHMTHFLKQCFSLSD
Method: The blood sample was immediately centrifuged at approximately 9000 g at 4° C. for 5 minutes. Plasma was separated and stored at −80° C. in aliquots of 300 μL. […] The assay was performed for 1 hour at 37° C. protected from light. 7-Amino-4-Methylcoumarin (AMC) release was detected measuring fluorescence at an excitation wavelength of 380 nm and an emission wavelength of 460 nm using a Multifunction Microplate Reader (Synergy 4, Biotek). All measurements were carried out at least as a single point.

mouse plasma DPPIV = target: T6, mouse plasma DPPIV (Mus musculus, UniProt P28843); assay: DPPIV enzymatic activity in mouse plasma; details: C57BL/6 mouse plasma; H-Gly-Pro-AMC substrate
T6 construct: from tissue; host or cells: mouse plasma (C57BL/6, EDTA)
Method: Approximately 500 μL of whole blood from one C57BL/6 mouse was harvested into BD Microtainer® tubes (K2) EDTA (#365974, Becton Dickinson and Co.) via terminal cardiac puncture. The blood sample was immediately centrifuged at approximately 9000 g at 4° C. for 5 minutes. Plasma was separated and stored at −80° C. in aliquots of 300 μL. To assay baseline DPPIV enzymatic exopeptidase activity, 5 μL of thawed, mouse plasma was diluted (1:5) in buffer (100 mM Tris-HCl, 400 mM NaCl, 50 mM salicylic acid, 1 mM EDTA, pH 7.5) and mixed with 35 µL of the same buffer before being pre-incubated with different concentrations of 10 μL of test compounds or DMSO vehicle for 15 minutes at 37° C. in 96-well black plates (Nunc, #237108). After pre-incubation, 50 μL of 200 μM dipeptide substrate H-Gly-Pro-AMC (Bachem, #L-1225) was added to the mixture. The assay was performed for 1 hour at 37° C. 7-Amino-4-Methylcoumarin (AMC) release was detected measuring fluorescence at an excitation wavelength of 360 nm and an emission wavelength of 460 nm using a Multifunction Microplate Reader (Synergy 4, Biotek). All measurements were carried out at least in duplicate.

T3 sequence (P27487 whole entry): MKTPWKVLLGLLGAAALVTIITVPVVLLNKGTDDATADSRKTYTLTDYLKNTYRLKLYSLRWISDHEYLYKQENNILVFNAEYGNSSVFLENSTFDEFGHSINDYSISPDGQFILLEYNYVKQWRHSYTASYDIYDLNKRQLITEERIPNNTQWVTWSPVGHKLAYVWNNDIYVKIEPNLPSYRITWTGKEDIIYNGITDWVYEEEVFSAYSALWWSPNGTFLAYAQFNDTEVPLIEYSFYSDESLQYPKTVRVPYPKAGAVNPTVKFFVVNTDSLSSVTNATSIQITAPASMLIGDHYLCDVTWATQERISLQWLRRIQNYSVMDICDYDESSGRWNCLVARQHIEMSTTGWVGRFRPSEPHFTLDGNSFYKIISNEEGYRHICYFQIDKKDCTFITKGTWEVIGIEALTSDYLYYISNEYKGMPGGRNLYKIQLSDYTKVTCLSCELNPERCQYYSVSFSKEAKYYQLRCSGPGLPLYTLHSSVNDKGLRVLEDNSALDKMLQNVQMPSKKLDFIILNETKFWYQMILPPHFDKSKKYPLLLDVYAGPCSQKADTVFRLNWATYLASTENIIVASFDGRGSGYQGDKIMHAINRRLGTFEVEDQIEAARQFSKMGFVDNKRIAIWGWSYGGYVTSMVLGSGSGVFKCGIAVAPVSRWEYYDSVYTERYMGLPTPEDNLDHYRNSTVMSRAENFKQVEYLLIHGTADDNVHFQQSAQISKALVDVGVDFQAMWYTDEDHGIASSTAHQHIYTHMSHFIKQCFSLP
T2 sequence (Q86TI2 whole entry): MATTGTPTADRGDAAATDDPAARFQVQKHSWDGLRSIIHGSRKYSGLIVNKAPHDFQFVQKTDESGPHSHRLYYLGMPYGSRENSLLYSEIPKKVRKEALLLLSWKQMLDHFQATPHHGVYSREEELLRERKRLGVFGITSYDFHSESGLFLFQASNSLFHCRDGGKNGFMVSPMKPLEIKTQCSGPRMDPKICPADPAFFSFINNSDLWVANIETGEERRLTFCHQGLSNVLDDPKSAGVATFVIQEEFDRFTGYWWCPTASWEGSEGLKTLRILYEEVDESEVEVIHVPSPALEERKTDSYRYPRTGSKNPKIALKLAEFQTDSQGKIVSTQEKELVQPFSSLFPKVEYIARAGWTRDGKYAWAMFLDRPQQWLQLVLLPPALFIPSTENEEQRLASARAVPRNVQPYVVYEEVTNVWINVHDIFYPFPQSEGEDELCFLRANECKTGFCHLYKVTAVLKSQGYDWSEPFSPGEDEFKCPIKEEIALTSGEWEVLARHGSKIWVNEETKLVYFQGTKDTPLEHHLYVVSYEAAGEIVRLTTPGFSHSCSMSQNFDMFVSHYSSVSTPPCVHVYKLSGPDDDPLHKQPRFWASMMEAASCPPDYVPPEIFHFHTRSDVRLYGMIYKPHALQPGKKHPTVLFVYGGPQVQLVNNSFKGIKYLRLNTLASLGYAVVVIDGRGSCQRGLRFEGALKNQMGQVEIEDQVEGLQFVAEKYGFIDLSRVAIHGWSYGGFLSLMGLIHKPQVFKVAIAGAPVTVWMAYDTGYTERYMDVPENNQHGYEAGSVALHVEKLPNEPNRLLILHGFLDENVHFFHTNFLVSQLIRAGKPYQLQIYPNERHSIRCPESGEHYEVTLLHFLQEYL
T6 sequence (P28843 37-760 limits assumed): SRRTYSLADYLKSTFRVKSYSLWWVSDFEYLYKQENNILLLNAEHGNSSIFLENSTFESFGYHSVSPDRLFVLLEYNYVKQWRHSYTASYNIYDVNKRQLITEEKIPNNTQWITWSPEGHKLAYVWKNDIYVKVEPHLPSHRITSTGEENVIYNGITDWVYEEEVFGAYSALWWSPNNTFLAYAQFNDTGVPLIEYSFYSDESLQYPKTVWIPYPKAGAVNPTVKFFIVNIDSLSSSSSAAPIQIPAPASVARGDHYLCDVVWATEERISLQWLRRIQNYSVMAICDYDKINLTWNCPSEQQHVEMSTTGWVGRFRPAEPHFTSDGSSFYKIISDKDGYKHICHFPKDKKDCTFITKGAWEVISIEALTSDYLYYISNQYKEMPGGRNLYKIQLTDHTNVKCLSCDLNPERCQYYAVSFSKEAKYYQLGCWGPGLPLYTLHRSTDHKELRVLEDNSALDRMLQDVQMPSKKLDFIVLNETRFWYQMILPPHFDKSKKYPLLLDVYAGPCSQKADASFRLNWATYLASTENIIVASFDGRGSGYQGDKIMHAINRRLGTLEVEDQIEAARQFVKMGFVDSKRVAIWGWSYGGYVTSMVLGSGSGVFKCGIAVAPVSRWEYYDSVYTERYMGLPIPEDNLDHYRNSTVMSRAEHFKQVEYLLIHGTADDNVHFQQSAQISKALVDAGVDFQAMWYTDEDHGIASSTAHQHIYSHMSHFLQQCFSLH

Row | SMILES | inhibition at 1 µM [1] | IC50 ([1]; Table 2, Z-Gly-Pro-AMC) | IC50 ([1]; Table 3) | IC50 [2] | IC50 [3] | IC50 [4] | IC50 (mouse plasma FAPα) | IC50 (mouse plasma DPPIV)
1 | N#C[C@@H]1CC(F)(F)CN1C(=O)CNC(=O)c1ccncc1-c1ccc(Cl)c(F)c1 [Compound 111, (S)-3-(4-chloro-3-fluorophenyl)-N-(2-(2-cyano-4,4-difluoropyrrolidin-1-yl)-2-oxoethyl)isonicotinamide] | > 50% | < 1000 nM | < 1000 nM | > 10 µM | 1 to 10 µM | > 10 µM | < 1000 nM | 1 to 10 µM
2 | N#C[C@@H]1CC(F)(F)CN1C(=O)CNC(=O)c1ccncc1Nc1ccc(F)cc1 [Compound 114, (S)—N-(2-(2-cyano-4,4-difluoropyrrolidin-1-yl)-2-oxoethyl)-3-((4-fluorophenyl)amino)isonicotinamide 2,2,2-trifluoroacetate] | > 50% | < 1000 nM | < 1000 nM | > 10 µM | > 10 µM | > 10 µM | – | –
3 | N#C[C@@H]1CC(F)(F)CN1C(=O)CNC(=O)c1ccncc1Sc1ccccc1 [Compound 115, (S)—N-(2-(2-cyano-4,4-difluoropyrrolidin-1-yl)-2-oxoethyl)-3-(phenylthio)isonicotinamide] | > 50% | < 1000 nM | < 1000 nM | > 10 µM | > 10 µM | 1 to 10 µM | – | –
4 | N#C[C@@H]1CC(F)(F)CN1C(=O)CNC(=O)c1c[nH]c(=O)cc1-c1ccnc2ccccc12 [Compound 116, (S)—N-(2-(2-cyano-4,4-difluoropyrrolidin-1-yl)-2-oxoethyl)-6-oxo-4-(quinolin-4-yl)-1,6-dihydropyridine-3-carboxamide] | > 50% | < 1000 nM | < 1000 nM | > 10 µM | 1 to 10 µM | > 10 µM | – | –
5 | N#C[C@@H]1CC(F)(F)CN1C(=O)CNC(=O)c1ccncc1Nc1cccnc1 [Compound 117, (S)—N-(2-(2-cyano-4,4-difluoropyrrolidin-1-yl)-2-oxoethyl)-3-(pyridin-3-ylamino)isonicotinamide] | > 50% | < 1000 nM | < 1000 nM | > 10 µM | > 10 µM | 1 to 10 µM | – | –
6 | N#C[C@@H]1CC(F)(F)CN1C(=O)CNC(=O)c1ccncc1NC1CCNCC1 [Compound 118, (S)—N-(2-(2-cyano-4,4-difluoropyrrolidin-1-yl)-2-oxoethyl)-3-(piperidin-4-ylamino)isonicotinamide] | > 50% | < 1000 nM | < 1000 nM | > 10 µM | > 10 µM | > 10 µM | – | –
7 | N#C[C@@H]1CC(F)(F)CN1C(=O)CNC(=O)c1ccncc1Nc1ccnc2ccccc12 [Compound 119, (S)—N-(2-(2-cyano-4,4-difluoropyrrolidin-1-yl)-2-oxoethyl)-3-(quinolin-4-ylamino)isonicotinamide] | > 50% | < 1000 nM | < 1000 nM | > 10 µM | > 10 µM | > 10 µM | – | –
8 | N#C[C@@H]1CC(F)(F)CN1C(=O)CNC(=O)c1ccncc1N1CCC(N)CC1 [Compound 120, (S)-3-(4-aminopiperidin-1-yl)-N-(2-(2-cyano-4,4-difluoropyrrolidin-1-yl)-2-oxoethyl)isonicotinamide 2,2,2-trifluoroacetate] | > 50% | < 1000 nM | < 1000 nM | > 10 µM | 1 to 10 µM | > 10 µM | – | –
9 | N#C[C@@H]1CC(F)(F)CN1C(=O)CNC(=O)c1c[nH]c(=O)cc1Cc1ccccc1 [Compound 121, (S)-4-benzyl-N-(2-(2-cyano-4,4-difluoropyrrolidin-1-yl)-2-oxoethyl)-6-oxo-1,6-dihydropyridine-3-carboxamide] | > 50% | < 1000 nM | < 1000 nM | 1 to 10 µM | > 10 µM | 1 to 10 µM | < 1000 nM | > 10 µM
10 | CC(c1ccccc1)c1cnccc1C(=O)NCC(=O)N1CC(F)(F)C[C@H]1C#N (stereo partly drawn) [Compound 123, N-(2-((S)-2-cyano-4,4-difluoropyrrolidin-1-yl)-2-oxoethyl)-3-(1-phenylethyl)isonicotinamide] | > 50% | < 1000 nM | < 1000 nM | 1 to 10 µM | > 10 µM | 1 to 10 µM | – | > 10 µM
11 | N#C[C@@H]1CC(F)(F)CN1C(=O)CNC(=O)c1ccncc1Oc1ccc(F)cc1 [compound 35] | > 50% | < 1000 nM | – | > 10 µM | > 10 µM | > 10 µM | – | –

Source: US11780821B2, “Inhibitors of fibroblast activation protein” (Praxis Biotech LLC, priority 2017, dated 2023)
